Test results published in patent US20240198337A1, “Bone Marrow on a Chip” (NEW YORK UNIVERSITY, priority 2021, published 2024).

Experiments:
[1] = system: murine Ph+ B-ALL cells; assay: Drug resistance testing: B-ALL cell viability in 3D hydrogel devices (Calcein-AM/DAPI); type: cell-based; settings: NIL 1 μM, PRE 1 μM, VCR 0.1 μM; for viability of B-ALL cells in perivascular versus endosteal niche: 2-day treatment; for B-ALL eradication (viability): absence of niche cells; for B-ALL eradication (viability) / B-ALL drug-induced cell death (chemo-resistance): 48 hr; for B-ALL drug-induced cell death (chemo-resistance): presence of niche cells
Method: The outcome of drugs was defined by the viability of B-ALL cells as a cytotoxic end point after drug treatment. B-ALL cells were cultured alone or co-cultured with niche cells in 3D hydrogel devices for 24 hr, and then incubated with 1 μM nilotinib (NIL, Cayman Chemical), 1 μM prednisone (PRE, Sigma), and 0.1 μM vincristine (VCR, Sigma) for 48 hr. The cell viability was quantitatively determined by using Calcein-AM (Thermo Fischer Scientific) and DAPI, which respectively stained the live and dead cells. Briefly, cells were rinsed thrice with PBS and incubated with Calcein-AM and DAPI ([…] and 5 μg/mL in PBS or medium) solution for 30 min at 37° C., followed by a final rinse with PBS. Afterward, cells were observed under a fluorescence microscope, and cellular viability was quantitatively measured by counting the number of objects in the green (live cells) and red (dead cells) channels. Untreated groups of B-ALL cells were used as controls to benchmark the drug resistance of different groups.

[2] = system: murine B-ALL cells; assay: Combinational drug regimens in the murine leukemic niche model; type: cell-based; settings: 5 μg/mL AMD, 1 μg/mL BIO or 10 μM BAY combined with NIL, PRE or VCR for 48 hr
Method: The 3D biomimetic leukemic niche model was exploited to test the combinational drug regimens in vitro. Generally, the murine leukemic niche models were cultured for 24 hr after fabrication, then respectively administrated with various pharmaceuticals [i.e. 5 μg/mL AMD3100 (AMD), 1 μg/mL BIO5192 (BIO), and 10 μM BAY 11-7082 (BAY), correspondingly], and concomitantly treated with 1 μM NIL, 1 μM PRE or 0.1 μM VCR for 48 hr. The viability of B-ALL cells was measured by the DAPI staining as described above.
The following investigation concerned whether co-targeting niche-derived pro-survival signals (CXCR4/CXCL12, VCAM-1/VLA-4, and NF-κB signaling) using either CXCR4 inhibitor (AMD), VLA-4 inhibitor (BIO), or NF-κB inhibitor (BAY) could improve the responsiveness of B-ALL-targeting chemotherapeutics. B-ALL blasts and niche cells (containing ECs and MSCs) were co-cultured for 24 hr in the Leukemia-on-a-Chip, and then administered individual niche-targeting compounds in combination with either NIL, PRE or VCR for 48 hr, after which B-ALL cell viability was measured. […] The lack of response to VLA-4 treatment may be due to VLA-4 blockade broke the leukemia dormancy to compensate the B-ALL death.

[3] = system: murine Ph+ B-ALL cells; assay: Drug resistance testing: B-ALL cell viability in 3D hydrogel devices (Calcein-AM/DAPI); type: cell-based; settings: NF-κB blockade
[4] = system: murine B-ALL cells; assay: B-ALL cell adhesion onto niche cells with or without adhesion blockade; type: cell-based; settings: VLA-4 blockade; 24 hours on niche cell monolayer
Method: (FIG. 11A) Experimental setup for testing murine B-ALL cell adhesion onto niche cells [i.e. ECs (C166), MSCs (OP9), and osteoblasts (MC3T3)] with or without adhesion blockade. B-ALL cells were plated into the dishes with niche cell monolayer and cultured for 24 hours, followed by five times washing with warm PBS. The images were then taken with 20× objective. (FIG. 11B) Adhered B-ALL cells were manually counted and plotted as cell number per filed. Each condition has 3 replicates with >10 images being counted. One-way ANOVA followed by Tukey's post hoc test (n.s., not significant, *p<0.05, **p<0.01).

[5] = system: NF-κB; assay: NF-κB activation (nuclear translocation) in B-ALL cells in Leukemia-on-a-Chip; type: cell-based, murine; settings: B-ALL cells with niche cells
From the text: FIG. 8A through FIG. 8J depicts the results of niche cells promoting leukemia progression via cytokine and adhesive signaling. (FIG. 8A) The regional CXCR4 distribution on murine B-ALL cells cultured with or without niche cells. (FIG. 8B) The quantified result corresponding to (FIG. 8A). (FIG. 8C) Membrane-based ELISA analysis of CXCL12 expression level of niche cells (ECs and MSCs). (FIG. 8D) The quantified result corresponding to (FIG. 8C). (FIG. 8E) The representative image showing B-ALL cells co-localized with niche cells via VCAM-1/VLA-4 signaling. (FIG. 8F) The representative images showing nuclear translocation of NF-κB in B-ALL cells. (FIG. 8G) NF-κB activation in B-ALL cells with or without niche cells and under treatments with CXCR4 inhibitor, AMD3100 (AMD) and VLA-4 inhibitor, BIO5192 (BIO). The ratios were manually quantified from 3 experimental replicates (N>200). One-way ANOVA followed by Tukey's post hoc test. […] (FIG. 8I) The quantification of NF-κB activation in human NALM-6, 697, RS(4; 11), and UOCB1 blasts within their leukemia niches. The ratios were manually measured from 3 experimental replicates (N>150). (FIG. 8J) The quantification of NF-κB activation in patient-derived B-ALL blasts within engineered leukemia niches. The ratios for various B-ALL blasts were manually measured from 3 technical replicates (N>20). […]

| SMILES | viability of B-ALL cells in perivascular versus endosteal niche [1] | B-ALL eradication (viability) [1] | B-ALL drug-induced cell death (chemo-resistance) [1] | responsiveness of B-ALL blasts to tumor-targeting agents (B-ALL killing) on niche co-targeting [2] | nuclear translocation of NF-κB in B-ALL cells [5] | further results |
| --- | --- | --- | --- | --- | --- | --- |
| C[C@]12C=CC(=O)C=C1CC[C@@H]1[C@@H]2C(=O)C[C@@]2(C)[C@H]1CC[C@]2(O)C(=O)CO [prednisone] | a stronger dormancy and chemo-resistance of B-ALL cells in the endosteal niche | efficient B-ALL eradication | chemo-resistance phenomenon was confirmed | – | – | B-ALL drug-induced cell death (chemo-resistance) ([1]; listed as PRE): partial rescue of drug-induced cell death |
| Cc1cn(-c2cc(NC(=O)c3ccc(C)c(Nc4nccc(-c5cccnc5)n4)c3)cc(C(F)(F)F)c2)cn1 [nilotinib] | a stronger dormancy and chemo-resistance of B-ALL cells in the endosteal niche | efficient B-ALL eradication | chemo-resistance phenomenon was confirmed | – | – | B-ALL drug-induced cell death (chemo-resistance) ([1]; listed as NIL): partial rescue of drug-induced cell death |
| Cc1ccc(S(=O)(=O)/C=C/C#N)cc1 [BAY 11-7082] | – | – | – | significantly reversed the chemo-protective activity of niche cells | – | B-ALL survival (cell viability) ([3]; absence of niche cells): significantly decreased B-ALL survival; B-ALL survival (cell viability) ([3]; co-culture with niche cells): partially rescued B-ALL cell survival from BAY treatment |
| Cc1ccccc1NC(=O)Nc1ccc(CC(=O)N(C)[C@@H](CC(C)C)C(=O)NCC[C@H](NC(=O)[C@@H]2CCCN2S(=O)(=O)c2cc(Cl)cc(Cl)c2)C(=O)O)cc1 [BIO5192] | – | – | – | no significant effect on the responsiveness of B-ALL blasts to tumor-targeting agents | suppressed the nuclear translocation of NF-κB in B-ALL cells | intercellular adhesion of B-ALL cells onto niche cells [4]: significantly decrease the intercellular adhesion of B-ALL cells onto niche cells |
| c1cc(CN2CCCNCCNCCCNCC2)ccc1CN1CCCNCCNCCCNCC1 [AMD3100] | – | – | – | significantly reversed the chemo-protective activity of niche cells | suppressed the nuclear translocation of NF-κB in B-ALL cells | – |
